Test system: rat myocardial I/R model
Assay: RBC velocity in the venules of heart coronary vessels after myocardial I/R
Type: in vivo
Conditions: for inhibitory effect on the decreased RBC velocity in the venules caused by I/R: from 30 min after reperfusion
Description: The rats were anesthetized by intramuscularly injecting 20 wt % urethane (1.25 g/kg) and fixed in the supine position. Neck skin was incised and anterior cervical muscles were separated to expose the trachea. Tracheal intubation was performed. Another end of the intubation was attached to a Small Animal Ventilator (ALC-V8, Shanghai Aoteshai Biology Science and Technology Limited Company, Shanghai, China) so as to carry out pressure breathing under the following conditions: a respiratory ratio of 1:1, a respiratory frequency of 75 times/min and a tidal volume of 12 mL/kg. The rectal temperature, measured with YSI REF 401 (Yellow Spring, Ohio, USA), was maintained at 37 37.5° C. by using a thermal blanket. The chest was sterilized and opened at the intercostal space between 2nd 4th ribs near the left and right sternal border to expose the heart. The 3⁄8 curved needle threaded with 3-0 suture was used to pass through the site at 1 2 mm below the juncture of the pulmonary artery cone and the left atrial appendage. The suture was ligated. A polyethylene tubule was placed between the silk suture and myocardial tissue, the silk suture was […] to cause ischemia. Ligature was released 30 min later to establish an I/R model. Danshensu+I/R group (DLA+I/R group): a Danshensu aqueous solution (in normal saline, 1.25 mg/ml) was administrated at a dosage of 5 mg/kg BW/h by intravenous drip 20 min before the experiment and continued until the end of the entire experiment. Notoginsenoside R1+I/R group (R1+I/R group): a Notoginsenoside R1 aqueous solution (in normal saline, 1.25 mg/ml) was administrated at a dosage of 5 mg/kg BW/h by intravenous drip 20 min before the experiment and continued until the end of the entire experiment. […] Heart coronary vessel microcirculation had been recorded by a CD video recorder ([…], US). […] The diameter of the venules and RBC velocity under a same visual field were recorded before ischemia, 30 min after ischemia, 30 min after reperfusion and 60 min after reperfusion. Recordings were replayed at 25 frames·s^-1, diameters of the arterioles and the venules as well as RBC velocities were measured with Image-Pro Plus 5.0 software. RBC velocities in the rat's heart arterioles and venules were expressed as “mm/s”, and the diameters of the rat's heart arterioles and venules were expressed as “μm”.

[1] = 5 mg/kg BW/h intravenous drip, FIG. 2

SMILES: O=C(O)C(O)Cc1ccc(O)c(O)c1 (stereo not shown) [Danshensu, (3,4-dihydroxyphenyl)lactic acid]
- inhibitory effect on the decreased RBC velocity in the venules caused by I/R [1]: significantly inhibitory effect
- course of the inhibitory effect on decreased RBC velocity (5 mg/kg BW/h intravenous drip, until 60 min after reperfusion, FIG. 2): does not further improved
- amelioration of RBC velocity in the venules of the heart coronary vessels caused by I/R (summary) (rats, summary statement of the description): transiently ameliorate

SMILES: CC(C)=CCC[C@](C)(O[C@@H]1O[C@H](CO)[C@@H](O)[C@H](O)[C@H]1O)[C@H]1CC[C@]2(C)[C@@H]1[C@H](O)C[C@@H]1[C@@]3(C)CC[C@H](O)C(C)(C)[C@@H]3[C@@H](O[C@@H]3O[C@H](CO)[C@@H](O)[C@H](O)[C@H]3O[C@@H]3OC[C@@H](O)[C@H](O)[C@H]3O)C[C@]12C [Notoginsenoside R1]
- inhibitory effect on the decreased RBC velocity in the venules caused by I/R [1]: does not display a significantly inhibitory effect
